This note sets out measurements from ChEMBL document CHEMBL1136002 (J Med Chem, 2002).

In test [1] the target is T1, Sodium-dependent dopamine transporter (Homo sapiens, UniProt Q01959). Put plainly: Binding affinity towards dopamine transporter (DAT) by using [125I]RTI-55 radioligand.
Test [2] has as its target T2, Sodium-dependent serotonin transporter (Homo sapiens, UniProt P31645). Kind of test: Binding affinity for serotonin transporter (SERT) using [125I]RTI-55.
Target sequence in this assay (P31645 whole entry): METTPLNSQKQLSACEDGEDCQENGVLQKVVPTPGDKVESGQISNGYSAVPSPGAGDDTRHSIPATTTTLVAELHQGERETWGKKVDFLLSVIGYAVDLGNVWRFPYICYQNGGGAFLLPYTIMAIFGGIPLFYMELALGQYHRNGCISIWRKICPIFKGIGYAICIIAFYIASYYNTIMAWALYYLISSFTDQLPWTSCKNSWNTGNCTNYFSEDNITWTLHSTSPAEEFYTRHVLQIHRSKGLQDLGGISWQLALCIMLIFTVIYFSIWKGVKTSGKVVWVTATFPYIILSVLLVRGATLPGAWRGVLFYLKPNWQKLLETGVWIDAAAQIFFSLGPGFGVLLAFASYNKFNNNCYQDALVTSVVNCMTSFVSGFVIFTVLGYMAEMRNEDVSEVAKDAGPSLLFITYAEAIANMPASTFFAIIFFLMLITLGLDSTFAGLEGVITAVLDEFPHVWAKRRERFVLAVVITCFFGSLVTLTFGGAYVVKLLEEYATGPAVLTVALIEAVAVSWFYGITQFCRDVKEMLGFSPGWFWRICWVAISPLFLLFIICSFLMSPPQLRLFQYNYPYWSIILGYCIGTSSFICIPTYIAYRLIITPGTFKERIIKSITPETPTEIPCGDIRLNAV
Test [3] has as its target T2, Sodium-dependent serotonin transporter. Put plainly: Ratio of Ki value towards Serotonin transporter (SERT) to that of Dopamine transporter (DAT).
Target sequence in this assay (P31645 whole entry, looked up): as the sequence (P31645 whole entry) above
The target in test [4] is T1, Sodium-dependent dopamine transporter. Put plainly: Compound was tested for the inhibition of dopamine (DA) reuptake. The test is classed as functional.
Test [5] has as its target Sodium-dependent noradrenaline transporter (Homo sapiens, UniProt P23975). Put plainly: Compound was tested for the inhibition of norepinephrine (NE) reuptake. Format: functional.
Test [6] concerns the target T2, Sodium-dependent serotonin transporter. Kind of test: Compound was tested for the inhibition of serotonin (5-HT) reuptake. The test is classed as functional.
Target sequence in this assay (P31645 whole entry): as above

T1 sequence (Q01959 whole entry): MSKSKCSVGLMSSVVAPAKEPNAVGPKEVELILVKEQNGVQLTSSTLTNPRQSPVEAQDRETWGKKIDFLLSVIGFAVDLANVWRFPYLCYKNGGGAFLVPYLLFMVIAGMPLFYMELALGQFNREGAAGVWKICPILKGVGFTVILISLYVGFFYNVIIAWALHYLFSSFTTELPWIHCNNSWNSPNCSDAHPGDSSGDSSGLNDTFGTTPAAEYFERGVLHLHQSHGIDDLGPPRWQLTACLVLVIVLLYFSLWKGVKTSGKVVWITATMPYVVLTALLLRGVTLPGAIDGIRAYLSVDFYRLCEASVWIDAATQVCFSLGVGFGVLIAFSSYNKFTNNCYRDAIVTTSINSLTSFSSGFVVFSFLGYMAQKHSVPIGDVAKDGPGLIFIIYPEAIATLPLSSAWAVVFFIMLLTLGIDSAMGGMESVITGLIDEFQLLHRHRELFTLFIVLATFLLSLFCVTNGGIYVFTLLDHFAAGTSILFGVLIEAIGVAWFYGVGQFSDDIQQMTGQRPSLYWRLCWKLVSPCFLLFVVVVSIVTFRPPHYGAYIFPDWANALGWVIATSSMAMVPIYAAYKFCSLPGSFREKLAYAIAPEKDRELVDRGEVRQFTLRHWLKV
Chain of Sodium-dependent noradrenaline transporter (P23975 whole entry): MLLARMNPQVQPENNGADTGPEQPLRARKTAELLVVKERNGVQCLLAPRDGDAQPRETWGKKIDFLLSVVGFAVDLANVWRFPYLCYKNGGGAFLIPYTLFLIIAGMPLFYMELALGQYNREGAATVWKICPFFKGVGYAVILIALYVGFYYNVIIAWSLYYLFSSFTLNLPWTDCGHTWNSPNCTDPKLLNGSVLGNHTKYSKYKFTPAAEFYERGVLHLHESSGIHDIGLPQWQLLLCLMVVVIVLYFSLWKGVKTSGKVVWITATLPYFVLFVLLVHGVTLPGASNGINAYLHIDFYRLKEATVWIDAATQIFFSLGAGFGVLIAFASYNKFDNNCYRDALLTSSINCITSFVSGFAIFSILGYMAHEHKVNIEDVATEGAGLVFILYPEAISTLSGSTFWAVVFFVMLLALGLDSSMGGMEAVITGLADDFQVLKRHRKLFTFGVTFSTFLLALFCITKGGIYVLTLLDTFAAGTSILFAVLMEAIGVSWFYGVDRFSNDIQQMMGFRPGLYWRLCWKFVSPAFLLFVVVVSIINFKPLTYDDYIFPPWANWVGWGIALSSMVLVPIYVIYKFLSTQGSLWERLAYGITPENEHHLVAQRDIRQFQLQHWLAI

On to `Fc1ccc(C(OCCC2CCN(Cc3cccc4ccccc34)CC2)c2ccc(F)cc2)cc1`, for which the Ki in test [1] was 0.016 µM; in test [2], 0.37 µM. Besides, the Ratio in test [3] is 23.
As to `Fc1ccc(C(OCCC2CCN(C/C=C/c3cccs3)CC2)c2ccc(F)cc2)cc1`, the figures for the Ki in test [1] and in test [2] were 0.0013 µM and 0.045 µM, respectively. In addition, in test [3], the Ratio amounted to 35.
For the compound `Fc1ccc(C(OCCC2CCN(CC#Cc3ccccc3)CC2)c2ccc(F)cc2)cc1`, in test [2], the affinity, expressed as Ki, was 0.164 µM. The Ratio in test [3] worked out at 31.
In the case of `Fc1ccc(C(OCCC2CCN(C/C=C/c3ccco3)CC2)c2ccc(F)cc2)cc1`, the Ki in test [1] turned out to be 0.00099 µM; in test [2], 0.041 µM. The Ratio in test [3] stood at 41.
Turning to `Fc1ccc(C(OCCC2CCN(Cc3cc4ccccc4[nH]3)CC2)c2ccc(F)cc2)cc1`, affinity in test [2] was put at a Ki of 0.088 µM. For the same compound, the Ratio in test [3] stood at 121.
Consider `Fc1ccc(C(OCCC2CCN(CCCc3ccccc3)CC2)c2ccc(F)cc2)cc1`, for which the Ki in test [1] was determined as 0.0011 µM; in test [2], 0.068 µM. Further, the Ratio in test [3] worked out at 65.
Turning to `Fc1ccc(C(OCCC2CCN(Cc3ccc4ccccc4c3)CC2)c2ccc(F)cc2)cc1`, the IC50 in test [4] came to 0.0072 µM; in test [5] it was 0.093 µM; in test [6], 0.277 µM. In addition, the Ki in test [2] turned out to be 0.229 µM. The Ratio in test [3] amounted to 323.
Regarding `Fc1ccc(C(OCCC2CCN(C/C=C/c3ccccc3)CC2)c2ccc(F)cc2)cc1`, the Ki in test [1] worked out at 0.00045 µM; in test [2], 0.047 µM. Also, the Ratio in test [3] was found to be 104.
Turning to `Fc1ccc(C(OCCC2CCN(Cc3cc4ccccc4s3)CC2)c2ccc(F)cc2)cc1`, the IC50 in test [4] was determined as 0.0119 µM; in test [5] it was 0.26 µM; in test [6], 1.04 µM. In test [2], this compound yielded a Ki of 0.246 µM. Moreover, the Ratio in test [3] came to 153.
Compound `Fc1ccc(C(OCCC2CCN(Cc3cc4ccccc4o3)CC2)c2ccc(F)cc2)cc1` yielded a Ki in test [2] of 0.085 µM. In addition, the Ratio in test [3] worked out at 84.

Broadly, the Ki is the dissociation constant of the complex between target and ligand, obtained from inhibition or displacement. Read a high Ki as weaker binding. One may read the IC50 as the point on the concentration scale where inhibition reaches its midpoint. A lower IC50 goes with higher potency.
